Values quoted from earlier work, collected in article PMC11046985 (Neuro-Oncology Advances, 2024).

Assays:
[1] = design: method as in earlier work; conditions: erlotinib increased from 150 to 600 mg; cited from earlier work
[2] = daily administration, patients with brain tumors; cited from earlier work

Structure (SMILES) | Increase of area under the curve estimation in the CSF [1] [%] | Increase of area under the curve estimation in the plasma [1] [%] | Therapeutic levels in cerebrospinal fluid (CSF) [2]
C#Cc1cccc(Nc2ncnc3cc(OCCOC)c(OCCOC)cc23)c1 [erlotinib] | 24 | 2 | did not appear to reach therapeutic levels
COc1cc2ncnc(Nc3ccc(F)c(Cl)c3)c2cc1OCCCN1CCOCC1 [gefitinib] |  |  | did not appear to reach therapeutic levels
